Among the data in ChEMBL document CHEMBL4145454, “Discovery of 2,4-diarylaminopyrimidines bearing a resorcinol motif as novel ALK inhibitors to overcome the G1202R resistant mutation” (Eur J Med Chem, 2018) are IC50, Activity and inhibition values, retold here.

The source made the active and inactive calls. The rule behind the calls is not given here. A value given as a limit tells only on which side of the number the result lay.

For assay [1], the target named is T1, ALK tyrosine kinase receptor (Homo sapiens, UniProt Q9UM73).
Assay [2] relates to NCI-H3122. Nature of the assay: cells. To be noted: Homo sapiens, NCI-H3122, 72 h.
Description: Antiproliferative activity against human NCI-H3122 cells after 72 hrs by SRB or CCK8 assay
Assay [3] addresses ALK tyrosine kinase receptor (Homo sapiens, UniProt Q9UM73, G1202R).
Assay [4] concerns BaF3. Nature of the assay: cells. The note with it: Mus musculus, BaF3, 72 h.
Description: Antiproliferative activity against mouse BAF3 cells harboring EML4-ALK after 72 hrs by SRB or CCK8 assay
Assay [5] has as its target ALK tyrosine kinase receptor (Homo sapiens, UniProt Q9UM73, L1152R).
Assay [6] concerns the target ALK tyrosine kinase receptor (Homo sapiens, UniProt Q9UM73, T1151M).
Assay [7] concerns SU-DHL-1. Nature of the assay: cells. To be noted: Homo sapiens, SU-DHL-1, 72 h.
Description: Antiproliferative activity against human SU-DHL1 cells harboring NPM-ALK after 72 hrs by SRB or CCK8 assay
Another assay concerns KARPAS-299. The experiment in a line: cells. The note with it: Homo sapiens, KARPAS-299, 72 h.
The next assay deals with HCC78. The experiment in a line: cells. The note with it: Homo sapiens, HCC78, 72 h.
Assay [8] deals with NCI-H3122. Nature of the assay: Induction of apoptosis in human NCI-H3122 cells at 20 to 80 nM after 48 hrs by Annexin V-FITC/propidium iodide staining based flow cytometry. Format: functional, cell-based. On the technique in general: Flow cytometry measures light scatter and fluorescence of single cells or particles in a stream.
Assay [9] deals with ALK tyrosine kinase receptor (Homo sapiens, UniProt Q9UM73, R1275Q).
Assay [10] concerns BaF3. The experiment in a line: cells. To be noted: Mus musculus, BaF3, 72 h. This is another data set of the same source.
In assay [11] the test system is BaF3. Nature of the assay: cells. To be noted: Mus musculus, BaF3, 72 h. This is another data set of the same source.
Description: Antiproliferative activity against mouse BAF3 cells harboring CD74-ROS1 after 72 hrs by SRB or CCK8 assay
In assay [12] the test system is BaF3. Nature of the assay: cells. To be noted: Mus musculus, BaF3, 72 h. This is another data set of the same source.
Description: Antiproliferative activity against mouse BAF3 cells harboring CD74-ROS1 G2032R mutant after 72 hrs by SRB or CCK8 assay
Assay [13] deals with SU-DHL-1. The experiment in a line: Induction of apoptosis in human SU-DHL1 cells at 20 to 80 nM after 48 hrs by Annexin V-FITC/propidium iodide staining based flow cytometry. It counts as functional, cell-based.
In assay [14] the target is ALK tyrosine kinase receptor (Homo sapiens, UniProt Q9UM73, S1206Y).
For assay [15], the system named is BaF3. Nature of the assay: cells. To be noted: Mus musculus, BaF3, 72 h. The source holds these as a separate data set.
Description: Antiproliferative activity against IL3-stimulated mouse BAF3 cells after 72 hrs by SRB or CCK8 assay
For assay [16], the system named is BaF3. Nature of the assay: cells. The note with it: Mus musculus, BaF3, 72 h. The source holds these as a separate data set.
Assay [17] addresses T1, ALK tyrosine kinase receptor. To be noted: 20 to 200 nM.
Description: Inhibition of ALK phosphorylation at Y1278 residue in human SU-DHL1 cells at 20 to 200 nM after 1 hr by Western blot analysis
Assay [18] shares this target. To be noted: NCI-H3122, 20 to 200 nM.
Description: Inhibition of ALK in human NCI-H3122 cells assessed as reduction in ERK phosphorylation at T202//Y204 residues at 20 to 200 nM after 1 hr by Western blot analysis
Assay [19] shares this target. The note with it: 20 to 200 nM. The source holds these as a separate data set.
Description: Inhibition of ALK in human SU-DHL1 cells assessed as reduction in STAT3 phosphorylation at Y705 residue at 20 to 200 nM after 1 hr by Western blot analysis
For assay [20] the target is unchanged. To be noted: NCI-H3122, 20 to 200 nM. This is another data set of the same source.
Description: Inhibition of ALK in human NCI-H3122 cells assessed as reduction in Akt phosphorylation at S473 residue at 20 to 200 nM after 1 hr by Western blot analysis
For assay [21] the target is unchanged. The note with it: 20 to 200 nM. This is another data set of the same source.
Description: Inhibition of ALK in human SU-DHL1 cells assessed as reduction in Akt phosphorylation at S473 residue at 20 to 200 nM after 1 hr by Western blot analysis
Assay [22] shares this target. To be noted: NCI-H3122, 20 to 200 nM. The source holds these as a separate data set.
Description: Inhibition of ALK in human NCI-H3122 cells assessed as reduction in STAT3 phosphorylation at Y705 residue at 20 to 200 nM after 1 hr by Western blot analysis
The target is the same in assay [23]. To be noted: 20 to 200 nM. The source holds these as a separate data set.
Description: Inhibition of ALK in human SU-DHL1 cells assessed as reduction in ERK phosphorylation at T202//Y204 residues at 20 to 200 nM after 1 hr by Western blot analysis
Assay [24] shares this target. The note with it: NCI-H3122, 20 to 200 nM. This is another data set of the same source.
Description: Inhibition of ALK phosphorylation at Y1278 residue in human NCI-H3122 cells at 20 to 200 nM after 1 hr by Western blot analysis

Description for HCC78: Antiproliferative activity against human HCC78 cells harboring SLC34A2-ROS1 after 72 hrs by SRB or CCK8 assay
Description for KARPAS-299: Antiproliferative activity against human KARPAS299 cells harboring NPM-ALK after 72 hrs by SRB or CCK8 assay

As usually defined, the IC50 is the concentration that gives 50% inhibition. Lower therefore signals higher potency. On to `CC(C)Oc1ccc(NC(=O)CNC(=O)c2cc(C(C)C)c(O)cc2O)cc1Nc1ncc(Cl)c(Nc2ccccc2S(=O)(=O)C(C)C)n1`, for which the 50% inhibitory concentration (IC50) in assay [1] turned out to be 3.3 nM; in the assay with NCI-H3122 [2], 69 nM.

Consider `COc1ccc(NC(=O)C(NC(=O)c2cc(C(C)C)c(O)cc2O)C(C)C)cc1Nc1ncc(Cl)c(Nc2ccccc2S(=O)(=O)C(C)C)n1` (stereo not given), for which the half-inhibitory concentration (IC50) (in assay [1]; in the assay with NCI-H3122 [2]) was more than 1000 nM each time.

On to `COc1ccc(NC(=O)C2(NC(=O)c3cc(C(C)C)c(O)cc3O)CC2)cc1Nc1ncc(Cl)c(Nc2ccccc2S(=O)(=O)C(C)C)n1`, for which the IC50 in [1] was found to be 130 nM; in the assay with NCI-H3122 [2] it was 254 nM.

For `COc1ccc(NC(=O)CNC(=O)c2ccc(O)c(C(C)C)c2)cc1Nc1ncc(Cl)c(Nc2ccccc2S(=O)(=O)C(C)C)n1`, the IC50 in [1] turned out to be 1.4 nM; in the assay with NCI-H3122 [2], 9.1 nM; in [3], 6.1 nM.

Regarding `CC(C)c1cc(C(=O)NCC(=O)Nc2ccc(F)c(Nc3ncc(Cl)c(Nc4ccccc4S(=O)(=O)C(C)C)n3)c2)c(O)cc1O`, the IC50 stood at 1 nM in [1], 7.2 nM in the assay on NCI-H3122 [2] and 15.5 nM in assay [3].

In the case of `COc1ccc(NC(=O)CNC(=O)c2cc(C(C)C)c(O)cc2O)cc1Nc1ncc(Cl)c(Nc2ccccc2P(C)(C)=O)n1`, the half-inhibitory concentration (IC50) in assay [1] came out at 1.5 nM; in the assay on NCI-H3122 [2], 99 nM; in assay [3], 7.8 nM.

For `COc1ccc(NC(=O)CNC(=O)c2cc(C(C)C)ccc2O)cc1Nc1ncc(Cl)c(Nc2ccccc2S(=O)(=O)C(C)C)n1`, the results for the IC50 (in assay [1]; in the assay on NCI-H3122 [2]; in assay [3]) were 0.7 nM, 4 nM and 15.3 nM, respectively.

As for `COc1ccc(NC(=O)CNC(=O)c2cc(C(C)C)c(O)cc2O)cc1Nc1ncc(Cl)c(Nc2ccccc2S(=O)(=O)C(C)C)n1`, the IC50 in the assay on BaF3 [4] was less than 1.5 nM; in assay [5], 10.6 nM; in assay [6] it was 2.2 nM; in assay [1], 1.7 nM; in the assay with SU-DHL-1 [7], 4.8 nM; in the assay with NCI-H3122 [2], 6.9 nM. Moreover, the IC50 with KARPAS-299 was 10.4 nM; in the assay on HCC78, less than 1.5 nM; in [3] it was 1.8 nM; in [9] it was 2.7 nM; in the assay with BaF3 [10], less than 1.5 nM; with BaF3 [11], 0.2 nM. In addition, the IC50 was 0.2 nM in the assay with BaF3 [12], 5.1 nM in assay [14], more than 1000 nM in the assay with BaF3 [15] and less than 1.5 nM in the assay with BaF3 [16]. The result in the assay with NCI-H3122 [8] and with SU-DHL-1 [13] was Active.

Take `COc1cc(OC)c(C(C)C)cc1C(=O)NCC(=O)Nc1cccc(Nc2ncc(Cl)c(Nc3ccccc3S(=O)(=O)C(C)C)n2)c1`: the IC50 (in assay [1]; in the assay on NCI-H3122 [2]) was more than 1000 nM each time.

Take `COc1ccc(NC(=O)CNC(=O)c2cc(C(C)C)c(O)cc2OC)cc1Nc1ncc(Cl)c(Nc2ccccc2S(=O)(=O)C(C)C)n1`: the IC50 in [1] was 48 nM; with NCI-H3122 [2] it was 12.8 nM.

For `C[C@H]1Oc2cc(cnc2N)-c2c(nn(C)c2C#N)CN(C)C(=O)c2ccc(F)cc21` [LORLATINIB], the IC50 with BaF3 [4] stood at 2.9 nM; with SU-DHL-1 [7] it was 4.9 nM; in the assay on NCI-H3122 [2], 7.8 nM; in the assay on KARPAS-299, 3 nM; with HCC78, 357 nM; in the assay with BaF3 [10] it was 200 nM. In addition, the IC50 in the assay on BaF3 [11] was 1.2 nM; with BaF3 [12], 262 nM; with BaF3 [15] it was more than 1000 nM; in the assay on BaF3 [16], 42.4 nM.

For `COc1ccc(NC(=O)CNC(=O)c2cc(C(C)C)c(O)cc2O)cc1Nc1ncnc(Nc2ccccc2S(=O)(=O)C(C)C)n1`, the IC50 in assay [1] is 1.3 nM; in the assay on NCI-H3122 [2], 64 nM.

Turning to `COc1ccc(Nc2ncc(Cl)c(Nc3ccccc3S(=O)(=O)C(C)C)n2)cc1NC(=O)CNC(=O)c1cc(C(C)C)c(O)cc1O`, the figures for the IC50 (in [1]; in the assay with NCI-H3122 [2]) were 2.6 nM and more than 1000 nM, respectively.

As for `COc1ccc(NC(=O)C(C)NC(=O)c2cc(C(C)C)c(O)cc2O)cc1Nc1ncc(Cl)c(Nc2ccccc2S(=O)(=O)C(C)C)n1` (stereo not given), the results for the IC50 (in assay [1]; with NCI-H3122 [2]) were 0.7 nM and 6.8 nM, respectively.

Consider `Cc1cc(Nc2ncc(Cl)c(Nc3ccccc3S(=O)(=O)C(C)C)n2)c(OC(C)C)cc1C1CCNCC1` [CERITINIB], for which the half-inhibitory concentration (IC50) is 10.7 nM in the assay on BaF3 [4]; 122 nM with SU-DHL-1 [7]; 96 nM in the assay with NCI-H3122 [2]; 84 nM with KARPAS-299; more than 1000 nM in the assay with HCC78; 726 nM in the assay on BaF3 [10]. In addition, the IC50 is 234 nM in the assay with BaF3 [11], more than 1000 nM with BaF3 [12], more than 1000 nM with BaF3 [15] and 54.9 nM in the assay on BaF3 [16]. In addition, the inhibition result in assay [17], in [18], in assay [19], in assay [20], in assay [21] and in [22] was “Active” throughout. For the same molecule, the inhibition result in [23] and in [24] was “Active” throughout.

For the molecule `COc1ccc(NC(=O)C(Cc2ccccc2)NC(=O)c2cc(C(C)C)c(O)cc2O)cc1Nc1ncc(Cl)c(Nc2ccccc2S(=O)(=O)C(C)C)n1` (stereo not given), the IC50 in assay [1] was 7.8 nM; in the assay with NCI-H3122 [2], 57 nM; in assay [3], 65 nM.

As for `COc1ccc(NC(=O)CNC(=O)c2cc(C(C)C)c(OC)cc2O)cc1Nc1ncc(Cl)c(Nc2ccccc2S(=O)(=O)C(C)C)n1`, the IC50 was found to be 10.5 nM in assay [1] and 13.7 nM with NCI-H3122 [2].

For the molecule `CC(C)Oc1ccc(NC(=O)CNC(=O)c2cc(C(C)C)c(O)cc2O)cc1Nc1nccc(Nc2ccccc2S(=O)(=O)C(C)C)n1`, the IC50 in assay [1] worked out at 4.2 nM; with NCI-H3122 [2], 123 nM.

In the case of `CC(C)c1cc(C(=O)NCC(=O)Nc2cccc(Nc3ncc(Cl)c(Nc4cc(S(=O)(=O)C(C)C)nn4C)n3)c2)c(O)cc1O`, the figures for the IC50 (in assay [1]; in the assay with NCI-H3122 [2]) were 262 nM and more than 1000 nM, respectively.

For the molecule `CC(C)c1cc(C(=O)NCC(=O)Nc2cccc(Nc3ncc(Cl)c(Nc4ccccc4S(=O)(=O)C(C)C)n3)c2)c(O)cc1O`, the IC50 is 0.8 nM in assay [1] and 84 nM with NCI-H3122 [2].
